The subject of one experiment is neuron cells. In words: re-uptake of neurotransmitters by neuron cells. It counts as cell-based.
Experiment [1] concerns withdrawal symptoms accompanied with addiction. To be noted: e.g., alcohol abstinence-induced anxiety and convulsion; Joshi et al., J. Med. Food 2005; cited from earlier work.

The text below walks through data of patent publication US8507548B2, “Method for treating addiction using quercetin-containing compositions” (Quercegen Pharmaceuticals LLC, priority 2008, dated 2013).

On to `O=c1c(O)c(-c2ccc(O)c(O)c2)oc2cc(O)cc(O)c12` [Quercetin], for which the “re-uptake of neurotransmitters by neuron cells” value with neuron cells is recorded as “block re-uptake of neurotransmitters by neuron cells”. Further, the “effect on withdrawal symptoms accompanied with addiction” value in experiment [1] was “alleviate withdrawal symptoms”.
